Values of other authors, collected in US8999405B1 (priority 2013, dated 2015).

What was measured:
[1] = alkaline nitrogenous base of nicotine

SMILES | Solubility Alcohol (alcohol) | Solubility Other (other solvent, named in the cell) | Solubility Water (water) | pKa [1]
CN1CCC[C@H]1c1cccnc1.O=C(O)c1ccccc1C(=O)O [Phthalic] | soluble | insoluble: ether | soluble | 
CN1CCC[C@H]1c1cccnc1 [nicotine I, 3-(1-methyl-2-pyrrolidinyl) pyridine] |  |  |  | ~8.5
